Results on 18 compounds are retold here after patent US6235717A, “Pharmaceutical compounds” (Glaxo Wellcome Inc., priority 1993, dated 2001).

The target of this experiment is endothelin converting enzyme (ECE) (Sus scrofa, UniProt F1SU04). The experiment in a line: "ECE" assay with porcine aortic "ECE" prep, fluorogenic substrate Suc-Ile-Ile-Trp-MCA. The following applies: porcine aortic endothelial cell ECE prep; 80 μM Suc-Ile-Ile-Trp-MCA; 15-20 min preincubation; overnight at 37° C.; pH 7.0; AMC fluorescence. The experiment is classed as biochemical. How it is done: IC50 values were determined as follows:
Porcine Aortic "ECE" Prep
Porcine aortas (22-25) were obtained fresh from a local slaughterhouse and delivered in cold PBS on ice. The aortas were cut open, rinsed with cold PBS and the endothelial cell layer scraped into cold PBS using a scalpel. The endothelial cells were pelleted by centrifugation, rinsed once with cold PBS, and repelleted. The pellet was lysed by addition of 10 volumes of 10 mM Tris-HCl, pH 7.0, containing protease inhibitors and DTS, followed by brief sonication and homogenization. The lysate was centrifuged at 100,000 g for 1 hour and the supernatant applied to a MONOQ FPLC anion exchange column equilibrated in 10 mM Tris-HCl, pH 7.0 (buffer A) which was then developed with an increasing gradient of NaCl in buffer A. The active fractions were aliquoted and stored at -70° C.
The ECE assay was performed in 96-well microplates in a total volume of 200μ/well. The assay cocktail contains 100 mM Tris-HCl, pH 7.0, 20 mM CaCl2, 80 μM substrate (Suc-Ile-Ile-Trp-MCA), enzyme and test compounds. The test compounds were preincubated with the enzyme for 15-20 minutes before initiation of the assay by addition of the substrate. The assay was incubated overnight at 37° C. and the fluorescence intensity caused by the release of AMC was determined using a fluorescence microplate reader (EX360 nm/EM460 nm). IC50 values for compounds were determined by constructing concentration-effect curves for the inhibition of enzyme activity. Concentrations on the linear portion of the inhibition curve were used to determine the IC50 utilizing a Hill plot.

Non-standard residues stand in square brackets, D forms with d. Residues, ends and D or L forms follow the SMILES beside them. ξ: configuration not given here. *: point of attachment. Phe(4-Br) = N[CH](Cc1ccc(Br)cc1)C(=O)O; ξW = NC(Cc1c[nH]c2ccccc12)C(=O)O; MeOSuc = COC(=O)CCC(=O)*; Cbz = O=C(OCc1ccccc1)*; Bn = c1ccc(C*)cc1; OtBu = CC(C)(C)O*

For orientation: IC50 means the midpoint of a concentration-inhibition curve.

endothelin converting enzyme (ECE), sequence (F1SU04 entry or part of it): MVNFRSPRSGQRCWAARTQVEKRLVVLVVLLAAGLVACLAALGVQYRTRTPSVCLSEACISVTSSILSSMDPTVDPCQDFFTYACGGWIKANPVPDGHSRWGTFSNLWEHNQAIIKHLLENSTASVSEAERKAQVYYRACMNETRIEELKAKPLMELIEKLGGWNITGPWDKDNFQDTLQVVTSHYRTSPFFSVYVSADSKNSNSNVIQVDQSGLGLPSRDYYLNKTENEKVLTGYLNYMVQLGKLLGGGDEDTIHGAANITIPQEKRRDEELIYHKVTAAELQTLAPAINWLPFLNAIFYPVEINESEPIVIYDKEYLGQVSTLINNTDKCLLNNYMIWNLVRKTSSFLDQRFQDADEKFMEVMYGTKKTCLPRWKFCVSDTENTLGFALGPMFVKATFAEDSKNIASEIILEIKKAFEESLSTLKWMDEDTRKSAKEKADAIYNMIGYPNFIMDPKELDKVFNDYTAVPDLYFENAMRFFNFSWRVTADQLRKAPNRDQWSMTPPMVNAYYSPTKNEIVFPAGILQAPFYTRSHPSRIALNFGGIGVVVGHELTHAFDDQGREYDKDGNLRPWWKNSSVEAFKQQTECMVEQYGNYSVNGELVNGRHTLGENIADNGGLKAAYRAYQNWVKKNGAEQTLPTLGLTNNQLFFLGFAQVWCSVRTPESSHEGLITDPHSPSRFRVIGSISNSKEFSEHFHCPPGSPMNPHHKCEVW

With `CC[C@H](C)[C@@H](C=O)NC(=O)[C@H](Cc1ccccc1)NC(=O)[C@H](C)NC(=O)OCc1ccccc1` [Example 21, N-Bezyloxycarbonyl-S-alanyl-S-phenylalanyl-1-S-formyl-1-(2-S-butyl)-methylamide] (Cbz-Ala-Phe-Ile-aldehyde), half-maximal inhibition (IC50) required 1200 nM.

`CC[C@H](C)[C@H](NC(=O)CCC(=O)OC)C(=O)N[C@H](C(=O)NC(Cc1c[nH]c2ccccc12)C(OC)OC)[C@@H](C)CC` (stereo partly drawn) [Example 73] returned an IC50 of 8000 nM.

Consider `CC[C@H](C)[C@H](NC(=O)CCCCCNC(=O)CCCCCNC(=O)CC1NC(=O)NC1=O)C(=O)N[C@H](C(=O)NC(C=O)Cc1c[nH]c2ccccc12)[C@@H](C)CC` (stereo partly drawn) [Example 70], for which the midpoint of inhibition, the IC50, lay at 80 nM.

Regarding `CC[C@H](C)[C@H](NC(=O)[C@H](CC(=O)OC(C)(C)C)NC(=O)OCc1ccccc1)C(=O)N[C@H](C(=O)N[C@H](C=O)Cc1c[nH]c2ccccc12)[C@@H](C)CC` [Example 64] (Cbz-D(OtBu)IIW-aldehyde), the IC50 worked out at 60 nM.

On to `CC[C@H](C)[C@H](NC(=O)OCc1ccccc1)C(=O)N[C@H](C(=O)NC(Cc1c[nH]c2ccccc12)CN1C(=O)C=CC1=O)[C@@H](C)CC` (stereo partly drawn) [Example 95, N-[(benzyloxy)carbonyl]-L-isoleucyl-L-isoleucine-L-N-[1-(N-maleimidomethyl)-2-(1H-indol-3-yl)ethyl]amide], for which half-maximal inhibition (IC50) was put at 1000 nM.

With “N-[[5-(hexahydro-2-oxo-1H-thieno[3,4-d]imidazol-4-yl]valeryl-L-isoleucyl-L- isoleucine-L-N-[1-formyl]2-(1H-indol-3-yl)ethyl]amide [Example 63]”, the midpoint of inhibition, the IC50, lay at 30 nM.

“N-[[[5-(hexahydro-2-oxo-1H-thieno[3,4-d]imidazol-4-yl)valeramido]hexanoyl]- L-isoleucyl-L-isoleucine-L-N-[1-formyl]2-(1H-indol-3-yl-ethyl]amide [Example 67]” yielded an IC50 of 80 nM.

In turn, `CC[C@H](C)[C@H](NC(=O)OCc1ccccc1)C(=O)N[C@H](C(=O)N[C@H](C=O)Cc1c[nH]c2ccccc12)C(C)C` [Example 29, N-Benzyloxycarbonyl-S-isoleucyl-S-valyl-1-S-formyl-1-(1H-indol-3-yl-methyl)-methylamide] (Cbz-Ile-Val-Trp-aldehyde) returned an IC50 of 200 nM.

The compound “N-Benzloxycarbonyl-L-isoleucyl-L-isoleucine-L-N-[1-ethoxalyl]2-(phenyl)ethyl]amide [Example 53]” yielded an IC50 of 10000 nM.

For the compound `NC(=O)NN=CC(Cc1c[nH]c2ccccc12)NC(=O)[C@H](Cc1c[nH]c2ccccc12)NC(=O)[C@H](Cc1c[nH]c2ccccc12)NC(=O)CCCCCNC(=O)CCCCC1SCC2NC(=O)NC21` (stereo partly drawn) [Example 87, N-[[[5-(hexahydro-2-oxo-1H-thieno[3,4-d]imidazol-4-yl)valeramido]hexanoyl]-L-tryptophanyl-L-tryptophan-L-N-[1-semicarbazonomethyl]2-(1H-indol-3-yl)ethyl]amide], the IC50 came to 60 nM.

As for `O=C[C@H](Cc1c[nH]c2ccccc12)NC(=O)[C@H](Cc1ccc(OCc2ccccc2)cc1)NC(=O)[C@H](Cc1c[nH]c2ccccc12)NC(=O)OCc1ccccc1` [Example 36, N-Benzyloxycarbonyl-S-tryptophanyl-S-(O-benzyl)tyrosyl-1-S-formyl-1-(1H-indol-3-yl-methyl)-methylamide] (Cbz-Trp-Tyr(Bn)-Trp-aldehyde), the IC50 came to 30 nM.

Regarding `CCOc1ccc(CC(NC(=O)C(Cc2ccc(OCc3ccccc3)cc2)NC(=O)OCc2ccccc2)C(=O)NC(C=O)Cc2ccc(Br)cc2)cc1` (stereo not drawn) [Example 99, N-Benzyloxycarbonyl-S-(O-benzyl)tyrosyl-S-(O-ethyl)tyrosyl-1-S-formyl-1-(4-bromophenylmethyl)-methylamide] (Cbz-Tyr(Bn)-Tyr(Et)-[Phe(4-Br)]-aldehyde; configuration not given here), half-maximal inhibition (IC50) was put at 20 nM.

Compound `CC[C@H](C)[C@H](NC(=O)OCc1ccccc1)C(=O)N[C@H](C(=O)NC(C=NNC(N)=O)Cc1c[nH]c2ccccc12)[C@@H](C)CC` (stereo partly drawn) [Example 56, N-Benzyloxycarbonyl-L-isoleucyl-L-isoleucine-L-N-[1[semicarbazonomethyl]2-(1H-indol-3-yl)ethyl]amide] showed a 50% inhibitory concentration (IC50) of 10000 nM.

In the case of `CC[C@H](C)[C@H](NC(=O)OCc1ccccc1)C(=O)N[C@@H](Cc1c[nH]c2ccccc12)C(=O)N[C@H](C=O)Cc1c[nH]c2ccccc12` [Example 30, N-Benzyloxycarbonyl-S-isoleucyl-S-tryptophanyl-1-S-formyl-1-(1H-indol-3-yl-methyl)-methylamide] (Cbz-Ile-Trp-Trp-aldehyde), 200 nM corresponded to half-maximal inhibition (IC50).

Regarding `COC(OC)[C@H](Cc1c[nH]c2ccccc12)NC(=O)[C@H](Cc1cccc2ccccc12)NC(=O)[C@H](Cc1ccc(Br)cc1)NC(=O)CCCCC1SCC2NC(=O)NC21` (stereo partly drawn) [Example 92, N-[[5-(hexahydro-2-oxo-1H-thieno[3,4-d]imidazol-4-yl)pentanoyl]-L-p-bromophenylalanyl-L-1-naphthylalanyl-L-N-[1-dimethoxymethyl]2-(1H-indol-3-yl)ethyl]amide], 1000 nM corresponded to half-maximal inhibition (IC50).

In turn, `CC[C@H](C)[C@H](NC(=O)[C@H](Cc1ccccc1)NC(=O)OCc1ccccc1)C(=O)N[C@H](C=O)[C@@H](C)CC` [Example 20, N-Benzyloxycarbonyl-S-phenylalanyl-S-isoleucyl-1-S-formyl-1-(S)-1-methylpropylmethylamide] (Cbz-Phe-Ile-Ile-aldehyde) came in with an IC50 of 1100 nM.

In turn, `NC(=O)NN=CC(Cc1c[nH]c2ccccc12)NC(=O)[C@H](Cc1c[nH]c2ccccc12)NC(=O)[C@H](Cc1c[nH]c2ccccc12)NC(=O)OCc1ccccc1` (stereo partly drawn) [Example 75] showed an IC50 of 40 nM.

`CC[C@H](C)[C@H](NC(=O)CCC(=O)OC)C(=O)N[C@H](C(=O)NC(C=O)Cc1c[nH]c2ccccc12)[C@@H](C)CC` (stereo partly drawn) [Example 74] (MeOSuc-Ile-Ile-[ξW]-aldehyde) registered an IC50 of 80 nM.
